Data reported in patent US10308643B2, “Heterocyclic compound” (Takeda Pharmaceutical Company Limited, priority 2015, dated 2019).

Legend:
Format in all cases: biochemical
[1] = target: T1, HDAC9 enzyme (Homo sapiens, UniProt Q9UKV0); experiment: HDAC9 Enzyme Inhibitory Assay (HDAC-Glo class IIa); conditions: 1 μM test compound; wells without enzyme = 100% inhibition; read-out: HDAC9 inhibitory rate (%) (1 μM)
T1 construct: transducing full length HDAC9 gene into Sf-9 insect cells; made in house; host or cells: Sf-9 insect cells
Procedure: HDAC9 Enzyme Inhibitory Assay
Enzyme was prepared by transducing full length HDAC9 gene into Sf-9 insect cells and purifying by Ni-NTA affinity column, and HDAC9 enzyme inhibitory activity was evaluated. Enzymes were used after preserved at −70° C. HDAC9 enzyme inhibitory activity of the test compound was measured using HDAC-Glo class IIa (Promega) according to the following experimental method. The test compound diluted with assay buffer (24 mM Tris-HCl (pH 7.5), 1 mM MgCl2, 0.35 mM KCl, 135 mM NaCl, 0.6 mM Glutathione, 0.01% Tween-20) was added to a 384-well plate by each 2 μL. Then, HDAC9 enzyme solution diluted with assay buffer was added thereto by each 2 μL, and the plate was incubated at room temperature for 60 min. After incubated, HDAC substrate-Developer solution prepared according to Promega protocol was added to the 384-well plate by each 4 μL, and the enzyme reaction was started. After reacting at room temperature for 20 min, luminescence level was measured using plate reader Envision (PerkinElmer). The inhibitory activity of each compound was calculated as a relative activity value when luminescence level in wells without enzyme is considered as 100% inhibition.

[2] = target: T2, HDAC1 enzyme (Homo sapiens, UniProt Q13547); experiment: HDAC1/6 Enzyme Inhibitory Assay (HDAC-Glo I/II Assay kit), HDAC1; conditions: 1 μM test compound, wells without enzyme = 100% inhibition; for inhibition at 1 µM: read-out: HDAC1 inhibitory rate (%) (1 μM)
T2 construct: transducing full length HDAC1 and HDAC6 genes into Sf-9 insect cells; GST; purchased SignalChem; host or cells: Sf-9 insect cells
Procedure: (§1) HDAC1/6 Enzyme Inhibitory Assay
(§2) HDAC1 enzyme and HDAC6 enzyme each prepared by transducing full length HDAC1 and HDAC6 genes into Sf-9 insect cells and purifying by GST affinity column were purchased from SignalChem. Using these enzymes, HDAC1 and/or HDAC6 enzyme inhibitory activities of the compound of the present invention were evaluated. Enzymes were used after preserved at −70° C. HDAC1 or HDAC6 enzyme inhibitory activity of the compound of the present invention was measured using HDAC-Glo™ I/II Assay kit (Promega) according to the following experimental method. The test compound diluted with assay buffer (24 mM Tris-HCl (pH 7.5), 1 mM MgCl2, 0.35 mM KCl, 135 mM NaCl, 0.6 mM Glutathione, 0.01% Tween-20) was added to a 384-well plate by each 2 μL. Then, HDAC1 or HDAC6 enzyme solution diluted with assay buffer was added thereto by each 4 μL, and the plate was incubated at room temperature for 60 min. After incubated, HDAC substrate-Developer solution prepared according to Promega protocol attached to the assay kit was added to the 384-well plate by each 2 μL, and the enzyme reaction was started. After reacting at room temperature for 20 min, luminescence level was measured using plate reader Envision (PerkinElmer). The inhibitory activity of each compound was calculated as a relative activity value when luminescence level in wells without enzyme is considered as 100% inhibition.

[3] = target: T3, HDAC6 enzyme (Homo sapiens, UniProt Q9UBN7); experiment: HDAC1/6 Enzyme Inhibitory Assay (HDAC-Glo I/II Assay kit), HDAC6; conditions: 1 μM test compound; wells without enzyme = 100% inhibition; read-out: HDAC6 inhibitory rate (%) (1 μM)
T3 construct: transducing full length HDAC1 and HDAC6 genes into Sf-9 insect cells; GST; purchased SignalChem; host or cells: Sf-9 insect cells
T3 sequence (Q9UBN7 1-1215): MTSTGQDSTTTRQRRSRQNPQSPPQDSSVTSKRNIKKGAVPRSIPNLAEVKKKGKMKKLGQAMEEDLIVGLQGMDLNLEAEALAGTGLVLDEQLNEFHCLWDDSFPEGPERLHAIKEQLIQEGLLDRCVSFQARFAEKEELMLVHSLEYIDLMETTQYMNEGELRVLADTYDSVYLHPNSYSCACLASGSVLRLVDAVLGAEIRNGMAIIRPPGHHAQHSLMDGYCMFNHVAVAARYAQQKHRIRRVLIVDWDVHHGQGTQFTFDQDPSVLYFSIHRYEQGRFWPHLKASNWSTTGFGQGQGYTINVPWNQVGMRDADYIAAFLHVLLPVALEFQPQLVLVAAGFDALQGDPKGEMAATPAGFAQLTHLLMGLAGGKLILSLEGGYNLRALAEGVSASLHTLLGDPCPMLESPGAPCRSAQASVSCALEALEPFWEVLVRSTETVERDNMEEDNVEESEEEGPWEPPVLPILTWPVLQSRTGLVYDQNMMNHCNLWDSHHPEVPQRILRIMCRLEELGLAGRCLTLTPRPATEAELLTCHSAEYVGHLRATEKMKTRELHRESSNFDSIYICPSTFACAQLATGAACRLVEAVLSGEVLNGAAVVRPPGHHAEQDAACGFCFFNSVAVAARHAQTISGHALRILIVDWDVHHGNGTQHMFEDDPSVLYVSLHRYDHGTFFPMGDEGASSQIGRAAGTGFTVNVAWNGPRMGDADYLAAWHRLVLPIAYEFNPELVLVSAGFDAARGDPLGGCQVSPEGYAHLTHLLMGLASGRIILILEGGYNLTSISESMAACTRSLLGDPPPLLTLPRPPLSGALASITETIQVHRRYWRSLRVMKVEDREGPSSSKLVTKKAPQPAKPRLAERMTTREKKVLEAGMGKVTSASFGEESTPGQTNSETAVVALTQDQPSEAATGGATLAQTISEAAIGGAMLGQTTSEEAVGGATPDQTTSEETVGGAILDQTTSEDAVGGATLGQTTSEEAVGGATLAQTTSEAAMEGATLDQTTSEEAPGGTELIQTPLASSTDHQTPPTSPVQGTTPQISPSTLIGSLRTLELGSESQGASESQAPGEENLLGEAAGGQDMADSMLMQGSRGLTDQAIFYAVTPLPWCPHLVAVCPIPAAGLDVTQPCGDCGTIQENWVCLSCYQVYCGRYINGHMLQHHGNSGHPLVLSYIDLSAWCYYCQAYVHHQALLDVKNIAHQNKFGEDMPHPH
Procedure: as §1, §2

T2 sequence (Q13547 whole entry): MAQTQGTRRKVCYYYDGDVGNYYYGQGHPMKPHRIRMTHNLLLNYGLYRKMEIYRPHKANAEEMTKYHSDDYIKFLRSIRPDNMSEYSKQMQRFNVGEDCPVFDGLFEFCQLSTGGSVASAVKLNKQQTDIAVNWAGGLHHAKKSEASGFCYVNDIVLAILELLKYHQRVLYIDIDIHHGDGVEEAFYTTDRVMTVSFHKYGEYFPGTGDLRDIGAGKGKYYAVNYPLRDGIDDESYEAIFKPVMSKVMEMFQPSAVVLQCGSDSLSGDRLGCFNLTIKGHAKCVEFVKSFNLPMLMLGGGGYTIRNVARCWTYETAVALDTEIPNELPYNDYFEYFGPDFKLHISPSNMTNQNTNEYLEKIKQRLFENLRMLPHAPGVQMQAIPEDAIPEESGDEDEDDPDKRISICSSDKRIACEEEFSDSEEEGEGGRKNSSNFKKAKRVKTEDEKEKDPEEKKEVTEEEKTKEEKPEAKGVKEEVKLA
T1 sequence (Q9UKV0 whole entry, species assumed): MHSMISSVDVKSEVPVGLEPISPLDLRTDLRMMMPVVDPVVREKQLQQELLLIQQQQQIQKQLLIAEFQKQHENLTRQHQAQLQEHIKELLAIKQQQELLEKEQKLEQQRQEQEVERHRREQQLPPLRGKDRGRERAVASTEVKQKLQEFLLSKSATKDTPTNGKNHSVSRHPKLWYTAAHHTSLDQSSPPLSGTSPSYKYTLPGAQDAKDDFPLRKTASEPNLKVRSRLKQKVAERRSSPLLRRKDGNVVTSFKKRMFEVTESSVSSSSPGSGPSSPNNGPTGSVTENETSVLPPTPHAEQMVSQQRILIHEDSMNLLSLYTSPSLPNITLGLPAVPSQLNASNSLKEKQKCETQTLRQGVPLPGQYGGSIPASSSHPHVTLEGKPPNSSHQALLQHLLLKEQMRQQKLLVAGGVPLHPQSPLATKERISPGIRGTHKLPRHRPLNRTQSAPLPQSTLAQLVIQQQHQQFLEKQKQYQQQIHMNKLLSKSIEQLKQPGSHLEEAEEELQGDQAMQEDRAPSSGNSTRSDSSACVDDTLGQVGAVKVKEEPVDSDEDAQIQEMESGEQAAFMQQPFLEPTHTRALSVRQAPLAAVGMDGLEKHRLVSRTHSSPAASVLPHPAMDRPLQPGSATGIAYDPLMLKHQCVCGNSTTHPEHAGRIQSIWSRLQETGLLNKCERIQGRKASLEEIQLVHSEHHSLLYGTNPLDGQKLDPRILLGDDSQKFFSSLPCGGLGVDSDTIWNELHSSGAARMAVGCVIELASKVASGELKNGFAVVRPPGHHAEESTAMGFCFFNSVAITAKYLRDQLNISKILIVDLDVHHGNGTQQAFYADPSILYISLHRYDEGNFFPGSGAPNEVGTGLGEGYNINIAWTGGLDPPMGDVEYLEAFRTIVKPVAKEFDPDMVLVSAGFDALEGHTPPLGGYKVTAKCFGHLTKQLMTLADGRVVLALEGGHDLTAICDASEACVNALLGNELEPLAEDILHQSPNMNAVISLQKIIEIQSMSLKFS

| Structure (SMILES) | inhibition at 1 µM [1] | inhibition at 1 µM [2] | inhibition at 1 µM [3] | HDAC1 inhibitory rate (%) (1 μM) ([2]; 1 µM) |
| --- | --- | --- | --- | --- |
| O=C1c2ccc(-c3noc(C(F)(F)F)n3)cc2CN1[C@H]1CCNC[C@H]1c1ccccc1 (relative stereo) [Example 79, cis-2-(3-phenylpiperidin-4-yl)-5-(5-(trifluoromethyl)-1,2,4-oxadiazol-3-yl)isoindolin-1-one] | 88% | 17% | 78% |  |
| Cn1cc(C(=O)N[C@@H]2CCCC[C@H]2N2Cc3ccc(-c4noc(C(F)(F)F)n4)cc3C2=O)cn1 [Example 112, 1-methyl-N-((1R,2R)-2-(1-oxo-6-(5-(trifluoromethyl)-1,2,4-oxadiazol-3-yl)-1,3-dihydro-2H-isoindol-2-yl)cyclohexyl)-1H-pyrazole-4-carboxamide] | 57% | 13% | 96% |  |
| O=C(N[C@@H]1CCCC[C@H]1N1Cc2ccc(-c3noc(C(F)(F)F)n3)cc2C1=O)N1C2CCC1COC2 [Example 145, N-((1R,2R)-2-(1-oxo-6-(5-(trifluoromethyl)-1,2,4-oxadiazol-3-yl)-1,3-dihydro-2H-isoindol-2-yl)cyclohexyl)-3-oxa-8-azabicyclo[3.2.1]octane-8-carboxamide] | 35% | 0% | 98% |  |
| O=C(N[C@@H]1CCCC[C@H]1N1Cc2ccc(-c3noc(C(F)(F)F)n3)cc2C1=O)[C@@H]1CC1(F)F [Example 147, (1S)-2,2-difluoro-N-((1R,2R)-2-(1-oxo-6-(5-(trifluoromethyl) -1,2,4-oxadiazol-3-yl)-1,3-dihydro-2H-isoindol-2-yl)cyclohexyl)cyclopropanecarboxamide] | 51% | 6% | 99% |  |
| O=C1CC[C@H](C(=O)N[C@@H]2CCCC[C@H]2N2Cc3ccc(-c4noc(C(F)(F)F)n4)cc3C2=O)N1 [Example 92, 5-oxo-N-((1R,2R)-2-(1-oxo-6-(5-(trifluoromethyl)-1,2,4-oxadiazol-3-yl)-1,3-dihydro-2H-isoindol-2-yl)cyclohexyl)-D-prolinamide] | 23% | 0% | 96% |  |
| CC1(C(=O)N[C@H]2CCCC[C@@H]2N2Cc3ccc(-c4noc(C(F)(F)F)n4)cc3C2=O)COC1 [Example 193, 3-methyl-N-((1S,2S)-2-(1-oxo-6-(5-(trifluoromethyl)-1,2,4-oxadiazol-3-yl)-1,3-dihydro-2H-isoindol-2-yl)cyclohexyl)oxetane-3-carboxamide] | 32% | 4% | 43% |  |
| CC(C)(C)OC(=O)N1CC[C@H](N2Cc3ccc(-c4noc(C(F)(F)F)n4)cc3C2=O)[C@@H](c2ccccc2)C1 [Example 30, tert-butyl (3S,4S)-4-(1-oxo-6-(5-(trifluoromethyl)-1,2,4-oxadiazol-3-yl)-1,3-dihydro-2H-isoindol-2-yl)-3-phenylpiperidine-1-carboxylate] | 84% | 30% | 97% |  |
| O=C(N[C@@H]1CCCC[C@H]1N1Cc2ccc(-c3noc(C(F)(F)F)n3)cc2C1=O)C1C[C@@H]1F (stereo partly drawn) [Example 98, 2-fluoro-N-((1R,2R)-2-(1-oxo-6-(5-(trifluoromethyl)-1,2,4-oxadiazol-3-yl)-1,3-dihydro-2H-isoindol-2-yl)cyclohexyl) cyclopropanecarboxamide] | 55% | 4% | 99% |  |
| O=C1c2cc(-c3noc(C(F)(F)F)n3)ccc2CN1[C@@H]1CCOC[C@H]1c1ccccc1 (relative stereo) [Example 34, trans-2-(3-phenyltetrahydro-2H-pyran-4-yl)-6-(5-(trifluoromethyl)-1,2,4-oxadiazol-3-yl)isoindolin-1-one] | 96% |  | 99% | 90% |
| O=C1c2ccc(-c3noc(C(F)(F)F)n3)cc2CN1c1ccccc1 [Example 1, 2-phenyl-5-(5-(trifluoromethyl)-1,2,4-oxadiazol-3-yl)isoindolin-1-one] | 55% |  | 8% |  |

Further lines, results first:

| inhibition at 1 µM [1] | inhibition at 1 µM [2] | inhibition at 1 µM [3] | HDAC1 inhibitory rate (%) (1 μM) ([2]; 1 µM) | Structure (SMILES) |
| --- | --- | --- | --- | --- |
| 95% | 26% | 97% |  | O=C1CCCN1[C@@H]1CCCC[C@H]1N1Cc2ncc(-c3noc(C(F)(F)F)n3)cc2C1=O [Example 186, 6-((1R,2R)-2-(2-oxopyrrolidin-1-yl)cyclohexyl)-3-(5-(trifluoromethyl)-1,2,4-oxadiazol-3-yl)-6,7-dihydro-5H-pyrrolo[3,4-b]pyridin-5-one] |
| 60% | 8% | 90% |  | CC1(C(=O)N[C@@H]2CCCC[C@H]2N2Cc3ccc(-c4noc(C(F)(F)F)n4)cc3C2=O)CCC1 [Example 174, 1-methyl-N-((1R,2R)-2-(1-oxo-6-(5-(trifluoromethyl)-1,2,4-oxadiazol-3-yl)-1,3-dihydro-2H-isoindol-2-yl)cyclohexyl)cyclobutanecarboxamide] |
| 25% | 5% | 98% |  | O=C(N[C@@H]1CCCC[C@H]1N1Cc2ccc(-c3noc(C(F)(F)F)n3)cc2C1=O)N1CCOCC1 [Example 139, N-((1R,2R)-2-(1-oxo-6-(5-(trifluoromethyl)-1,2,4-oxadiazol-3-yl)-1,3-dihydro-2H-isoindol-2-yl)cyclohexyl)morpholine-4-carboxamide] |
| 66% |  | 99% |  | O=C1CCCN1[C@@H]1CCCC[C@H]1N1Cc2ccc(-c3noc(C(F)(F)F)n3)cc2C1=O [Example 191, 2-((1R,2R)-2-(2-oxopyrrolidin-1-yl)cyclohexyl)-6-(5-(trifluoromethyl)-1,2,4-oxadiazol-3-yl)isoindolin-1-one] |
| 47% |  | 99% |  | O=C1CCCN1[C@@H]1CCCC[C@H]1N1Cc2ccc(-c3noc(C(F)(F)F)n3)cc2C1=O (relative stereo) [Example 18, trans-2-(2-(2-oxopyrrolidin-1-yl)cyclohexyl)-6-(5-(trifluoromethyl)-1,2,4-oxadiazol-3-yl)isoindolin-1-one] |
